Reference: the NIST ThermoML archive (doi:10.1021/je100990n)
Values joined by “and” are separate entries in the source; they are usually repeats but may differ in a detail not shown here. Equal values may be shown once. ± gives the expanded uncertainty stated by the source.

Settings: 293.15 K; 101.33 kPa; Liquid; Vibrating wire viscometry

## O [water]
  viscosity: 1.002 ± 0.0087 mPa·s and 1.005 ± 0.0087 mPa·s and 0.9992 ± 0.0087 mPa·s
